Measured values from patent US4438109A, “Tylosin derivatives” (Zaidan Hojin Biseibutsu Kagaku Kenkyu Kai, priority 1980, dated 1984).
≈ marks a conversion by molar mass, not a printed value. Read-outs that look alike come from different tables or passages of the source.

Experiments:
Test in all cases: minimum inhibition concentration (MIC)
Type in all cases: cell-based
Ataph. aureus MS 9861 = system: Ataph. aureus MS 9861
Source text: (§1) Regarding the antimicrobial activity of the tylosin derivatives of this invention shown by formula I, the minimum inhibition concentration (MIC) is shown in Table I.

B. subtilis NRRL B-558 = details: Bacillus subtilis, NRRLB558
Source text: as §1

E. coli NIHJ = details: Escherichia coli
Source text: as §1

Kleb. pneumoniae PCI 602 = details: Klebsiella pneumoniae, PCI602
Source text: as §1

Sal. enteritidis 1891 = details: Salmonella enterica
Source text: as §1

Sh. dysenteriae JS 11910 = details: Shigella dysenteriae, JS11910
Source text: as §1

Staph. aureus 209 P = details: Staphylococcus aureus
Source text: as §1

Staph. aureus MS 10225 = details: Staphylococcus aureus, MS10225
Source text: as §1

[1] = B. subtilis NRRL B-558, read-out: MIC
[2] = Kleb. pneumoniae PCI 602, read-out: MIC
[3] = Sal. enteritidis 1891, read-out: MIC
[4] = Staph. aureus 209 P, read-out: MIC

Compound	MIC (Ataph. aureus MS 9861)	MIC (B. subtilis NRRL B-558; [1])	MIC (E. coli NIHJ)	MIC (Kleb. pneumoniae PCI 602; [2])	MIC (Sal. enteritidis 1891; [3])	MIC (Sh. dysenteriae JS 11910)	MIC (Staph. aureus 209 P; 209P)	MIC (Staph. aureus MS 10225)	MIC (B. subtilis NRRL B-558)	MIC (Sal. enteritidis 1891; ENTERITIDIS)	MIC (E. coli NIHJ; E. coli NIHJ, read-out: MIC)	MIC (Kleb. pneumoniae PCI 602)	MIC (Staph. aureus 209 P; [4])
CCC1OC(=O)CC(O)C(C)C(OC2OC(C)CC(N(C)C)C2O)C(CC=O)CC(C)C(=O)C=CC(C)=CC1CO (centres unmarked) [Example 2, 4'-deoxy mycaminosyl tylonolide]	3.12 µg/mL (≈ 5.36 µM)	0.78 µg/mL (≈ 1.34 µM)	3.12 µg/mL (≈ 5.36 µM)	0.78 µg/mL (≈ 1.34 µM)	0.78 µg/mL (≈ 1.34 µM)	< 0.2 µg/mL	0.2 µg/mL (≈ 0.344 µM)	3.12 µg/mL (≈ 5.36 µM)					
CCC1OC(=O)CC(O)C(C)C(OC2OC(C)CC(N(C)C)C2O)C(CC=O)CC(C)C(=O)C=CC(C)=CC1COC(C)=O (centres unmarked) [Example 9, 23-O-acetyl-4'-deoxy mycaminosyl tylonolide]	1.56 µg/mL (≈ 2.5 µM)		6.25 µg/mL (≈ 10 µM)	6.25 µg/mL (≈ 10 µM)		0.78 µg/mL (≈ 1.25 µM)	0.2 µg/mL (≈ 0.321 µM)	0.78 µg/mL (≈ 1.25 µM)	0.39 µg/mL (≈ 0.625 µM)	1.56 µg/mL (≈ 2.5 µM)			
CCC(=O)OCC1C=C(C)C=CC(=O)C(C)CC(CC=O)C(OC2OC(C)CC(N(C)C)C2O)C(C)C(O)CC(=O)OC1CC (centres unmarked) [Example 10, 23-O-propionyl-4'-deoxy mycaminosyl tylonolide]	3.12 µg/mL (≈ 4.89 µM)				0.78 µg/mL (≈ 1.22 µM)	0.2 µg/mL (≈ 0.314 µM)		0.2 µg/mL (≈ 0.314 µM)	< 0.2 µg/mL		6.25 µg/mL (≈ 9.8 µM)	1.56 µg/mL (≈ 2.45 µM)	0.2 µg/mL (≈ 0.314 µM)
CCC1OC(=O)CC(O)C(C)C(OC2OC(C)CC(N(C)C)C2O)C(CC=O)CC(C)C(=O)C=CC(C)=CC1COC1CCCS1 (centres unmarked) [Example 18, 23-O-tetrahydrothiofuranyl-4'-deoxy mycaminosyl tylonolide]	0.2 µg/mL (≈ 0.299 µM)			1.56 µg/mL (≈ 2.34 µM)	1.56 µg/mL (≈ 2.34 µM)	0.39 µg/mL (≈ 0.584 µM)		0.2 µg/mL (≈ 0.299 µM)	< 0.2 µg/mL		6.25 µg/mL (≈ 9.36 µM)		< 0.2 µg/mL
CCC1OC(=O)CC(O)C(C)C(OC2OC(C)CC(N(C)C)C2O)C(CC=O)CC(C)C(=O)C=CC(C)=CC1COC1CCCCS1 (centres unmarked) [Example 19, 23-O-tetrahydrothiopyranyl-4'-deoxy mycaminosyl tylonolide]	< 0.2 µg/mL				1.56 µg/mL (≈ 2.29 µM)	0.39 µg/mL (≈ 0.572 µM)		< 0.2 µg/mL	< 0.2 µg/mL		25 µg/mL (≈ 36.7 µM)	3.12 µg/mL (≈ 4.58 µM)	< 0.2 µg/mL
CCC1OC(=O)CC(O)C(C)C(OC2OC(C)CC(N(C)C)C2O)C(CC=O)CC(C)C(=O)C=CC(C)=CC1COCSC (centres unmarked) [Example 20, 23-O-methylthiomethyl-4'-deoxy mycaminosyl tylonolide]	3.12 µg/mL (≈ 4.86 µM)	< 0.2 µg/mL		1.56 µg/mL (≈ 2.43 µM)	0.78 µg/mL (≈ 1.22 µM)	0.78 µg/mL (≈ 1.22 µM)		0.78 µg/mL (≈ 1.22 µM)			6.25 µg/mL (≈ 9.74 µM)		< 0.2 µg/mL
CCC1OC(=O)CC(O)C(C)C(OC2OC(C)CC(N(C)C)C2O)C(CC=O)CC(C)C(=O)C=CC(C)=CC1CCl (centres unmarked) [Example 21, 23-chloro-23,4'-dideoxy mycaminosyl tylonolide]	6.25 µg/mL (≈ 10.4 µM)	0.2 µg/mL (≈ 0.333 µM)		1.56 µg/mL (≈ 2.6 µM)	0.39 µg/mL (≈ 0.65 µM)	0.39 µg/mL (≈ 0.65 µM)		6.25 µg/mL (≈ 10.4 µM)			6.25 µg/mL (≈ 10.4 µM)		0.78 µg/mL (≈ 1.3 µM)
CCC1OC(=O)CC(O)C(C)C(OC2OC(C)CC(N(C)C)C2O)C(CC=O)CC(C)C(=O)C=CC(C)=CC1CSc1ccccn1 (centres unmarked) [Example 27, 23,4'-dideoxy-23-(pyridine-2-ylthio) mycaminosyl tylonolide]	0.78 µg/mL (≈ 1.16 µM)	< 0.2 µg/mL	12.5 µg/mL (≈ 18.5 µM)	1.56 µg/mL (≈ 2.31 µM)	0.78 µg/mL (≈ 1.16 µM)	0.2 µg/mL (≈ 0.296 µM)		0.39 µg/mL (≈ 0.578 µM)					< 0.2 µg/mL
CC[C@H]1OC(=O)C[C@@H](O)[C@H](C)[C@@H](O[C@@H]2O[C@H](C)[C@@H](O[C@H]3C[C@@](C)(O)[C@@H](O)[C@H](C)O3)[C@H](N(C)C)[C@H]2O)[C@@H](CC=O)C[C@@H](C)C(=O)/C=C/C(C)=C/[C@@H]1CO[C@@H]1O[C@H](C)[C@@H](O)[C@@H](OC)[C@H]1OC [Tylosin]	6.25 µg/mL (≈ 6.82 µM)		100 µg/mL (≈ 109 µM)	25 µg/mL (≈ 27.3 µM)	25 µg/mL (≈ 27.3 µM)	12.5 µg/mL (≈ 13.6 µM)	0.39 µg/mL (≈ 0.426 µM)	3.12 µg/mL (≈ 3.41 µM)					
